According to US4228292A, “N-Substituted benzothiazolines and benzoxazolines and their use as herbicides and plant growth regulants” (Monsanto Company, priority 1978, dated 1980):

Tests used:
Crabgrass = test: post-emergent herbicidal test; assay type: in vivo; settings: T; note: ranges in brackets are in %
Procedure: (§1) The post-emergent tests were conducted as follows:
(§2) The herbicidal active ingredients are applied in spray form to two or three-week old specimens of various plant species. The spray, a solution or wettable powder suspension containing the appropriate rate of herbicidal active ingredient to give the desired test rate and a surfactant, is applied to the plants. The treated plants are placed in a greenhouse and approximately two or four weeks later the effects are observed and recorded. The results are shown in Tables IX and X in which the post-emergent herbicidal rating code is as follows: […]

Hemp Sesbania = test: post-emergent herbicidal test; assay type: in vivo; settings: R; note: ranges in brackets are in %
Procedure: as §1, §2

Panicum Spp = test: post-emergent herbicidal test; assay type: in vivo; settings: S; note: ranges in brackets are in %
Procedure: as §1, §2

Rice = test: post-emergent herbicidal test; assay type: in vivo; settings: O; note: ranges in brackets are in %
Procedure: as §1, §2

Sorghum = test: post-emergent herbicidal test; assay type: in vivo; settings: P; note: ranges in brackets are in %
Procedure: as §1, §2

Soybean = test: post-emergent herbicidal test; assay type: in vivo; settings: L; note: ranges in brackets are in %
Procedure: as §1, §2

Sugar Beet = test: post-emergent herbicidal test; assay type: in vivo; settings: M; note: ranges in brackets are in %
Procedure: as §1, §2

Wheat = test: post-emergent herbicidal test; assay type: in vivo; settings: N; note: ranges in brackets are in %
Procedure: as §1, §2

Wild Buckwheat = test: post-emergent herbicidal test; assay type: in vivo; settings: Q; note: ranges in brackets are in %
Procedure: as §1, §2

soybean plants = test: plant growth regulating activity on soybean plants; assay type: in vivo, variety Williams; settings: 2.8 kg/h
Procedure: A number of soybean plants, variety Williams, were grown from seeds in plastic pots in the greenhouse for a period of one week at which time the plants are thinned to one plant per pot. When the second trifoliate leaf (three weeks) was fully expanded, the plants were treated with a solution of the active ingredient in acetone and water. Aqueous Tween 20 was used as a surfactant.
When the fifth trifoliate leaf (four to five weeks) was fully expanded, the treated plants were compared with the non-treated control plants and the observations recorded.

COC(=N)Cn1c(=O)sc2ccc(Cl)cc21 [Compound 27]
0 (0-24): post-emergent herbicidal rating (Crabgrass; 0.28 kg/h, 2 WAT) | post-emergent herbicidal rating (Crabgrass; 1.12 kg/h, 4 WAT) | post-emergent herbicidal rating (Crabgrass; 5.6 kg/h, 4 WAT) | post-emergent herbicidal rating (Hemp Sesbania; 0.28 kg/h, 2 WAT) | post-emergent herbicidal rating (Panicum Spp; 0.28 kg/h, 2 WAT) | post-emergent herbicidal rating (Panicum Spp; 1.12 kg/h, 4 WAT) | post-emergent herbicidal rating (Panicum Spp; 5.6 kg/h, 4 WAT) | post-emergent herbicidal rating (Rice; 0.28 kg/h, 2 WAT) | post-emergent herbicidal rating (Rice; 1.12 kg/h, 4 WAT) | post-emergent herbicidal rating (Rice; 5.6 kg/h, 4 WAT) | post-emergent herbicidal rating (Sorghum; 0.28 kg/h, 2 WAT) | post-emergent herbicidal rating (Sorghum; 1.12 kg/h, 4 WAT) | post-emergent herbicidal rating (Sorghum; 5.6 kg/h, 4 WAT) | post-emergent herbicidal rating (Wheat; 0.28 kg/h, 2 WAT) | post-emergent herbicidal rating (Wheat; 1.12 kg/h, 4 WAT) | post-emergent herbicidal rating (Wild Buckwheat; 0.28 kg/h, 2 WAT)
3 (75-99): post-emergent herbicidal rating (Soybean; 5.6 kg/h, 4 WAT) | post-emergent herbicidal rating (Sugar Beet; 1.12 kg/h, 4 WAT) | post-emergent herbicidal rating (Sugar Beet; 5.6 kg/h, 4 WAT) | post-emergent herbicidal rating (Wild Buckwheat; 1.12 kg/h, 4 WAT)
2 (50-74): post-emergent herbicidal rating (Hemp Sesbania; 1.12 kg/h, 4 WAT) | post-emergent herbicidal rating (Soybean; 1.12 kg/h, 4 WAT)
4 (100): post-emergent herbicidal rating (Hemp Sesbania; 5.6 kg/h, 4 WAT) | post-emergent herbicidal rating (Wild Buckwheat; 5.6 kg/h, 4 WAT)
1 (25-49): post-emergent herbicidal rating (Soybean; 0.28 kg/h, 2 WAT) | post-emergent herbicidal rating (Sugar Beet; 0.28 kg/h, 2 WAT) | post-emergent herbicidal rating (Wheat; 5.6 kg/h, 4 WAT)
Plants died.: plant growth regulant observations (soybean plants)
